Experimental data taken from ChEMBL document CHEMBL1126458, “Structurally novel antiarrhythmic / antioxidant quinazolines” (Bioorg Med Chem Lett, 1992).
Values after ≈ are worked out from the molar mass of the structure shown.

Assays:
Homo sapiens [1] = species on record: Homo sapiens; assay: Inhibition of C5a-induced luminol dependent chemiluminescence of human neutrophils; format: functional
Oryctolagus cuniculus = species on record: Oryctolagus cuniculus; assay: In vitro inhibition of iron-dependent peroxidation of rabbit brain vesicular membrane lipids; format: functional
[2] = Oxidation potential as carbon paste disc electrode against a Ag/AgCl reference electrode
Homo sapiens [3] = species on record: Homo sapiens; assay: Inhibition of C5a-induced luminol dependent chemiluminescence of human neutrophils; NA - compound found inactive at 10 uM; format: functional
Canis familiaris [4] = species on record: Canis familiaris; assay: Compound was evaluated for conduction time from stimulating to intracellular recording electrode at 10 uM concentration on Isolated Canine Purkinje Fibers; format: functional, Canis lupus familiaris, Purkinje fiber
Canis familiaris [5] = species on record: Canis familiaris; assay: Action potential amplitude at 10 uM concentration on Isolated Canine Purkinje Fibers was determined; format: functional, Canis lupus familiaris, Purkinje fiber
Canis familiaris [6] = species on record: Canis familiaris; assay: Action potential duration at 95% of repolarization was determined at 10 uM concentration on Isolated Canine Purkinje Fibers; format: functional, Canis lupus familiaris, Purkinje fiber
Canis familiaris [7] = species on record: Canis familiaris; assay: Resting potential on Isolated Canine Purkinje Fibers at 10 uM concentration; format: functional, Canis lupus familiaris, Purkinje fiber
Canis familiaris [8] = species on record: Canis familiaris; assay: Action potential duration at 50% of repolarization was determined at 10 uM concentration on Isolated Canine Purkinje Fibers; format: functional, Canis lupus familiaris, Purkinje fiber
Canis familiaris [9] = species on record: Canis familiaris; assay: Maximal rate of depolarization at 10 uM concentration on Isolated Canine Purkinje Fibers; format: functional; settings: Canis lupus familiaris, Purkinje fiber
[10] = Plasma concentration in dogs when measured 1 and 5 hours following initiation of reperfusion at 300 min; format: ADME, organism-based, Canis lupus familiaris; settings: dog
[11] = Plasma concentration in dogs when measured 1 and 5 hours following initiation of reperfusion at 60 min; format: ADME, organism-based, Canis lupus familiaris; settings: dog
Canis familiaris [12] = species on record: Canis familiaris; assay: Compound was evaluated for conduction time from stimulating to intracellular recording electrode at 100 uM concentration on Isolated Canine Purkinje Fibers; format: functional, Canis lupus familiaris, Purkinje fiber
Canis familiaris [13] = species on record: Canis familiaris; assay: Action potential duration at 50% of repolarization was determined at 100 uM concentration on Isolated Canine Purkinje Fibers; format: functional, Canis lupus familiaris, Purkinje fiber
Canis familiaris [14] = species on record: Canis familiaris; assay: Resting potential on Isolated Canine Purkinje Fibers at 100 uM concentration; format: functional, Canis lupus familiaris, Purkinje fiber
Canis familiaris [15] = species on record: Canis familiaris; assay: Maximal rate of depolarization at 100 uM concentration on Isolated Canine Purkinje Fibers; format: functional; settings: Canis lupus familiaris, Purkinje fiber
[16] = Plasma concentration in dogs when measured 1 and 5 hours following initiation of reperfusion at 30 min; format: ADME, organism-based, Canis lupus familiaris; settings: dog
Canis familiaris [17] = species on record: Canis familiaris; assay: Action potential amplitude at 100 uM concentration on Isolated Canine Purkinje Fibers was determined; format: functional, Canis lupus familiaris, Purkinje fiber
Homo sapiens [18] = species on record: Homo sapiens; assay: Inhibition of C5a-induced luminol dependent chemiluminescence of human neutrophils; NS - Not sufficiently soluble in saline for testing; format: functional

Structure (SMILES)	EC50 (Homo sapiens [1]) [µM]	MIC (Oryctolagus cuniculus) [µM]	E1/2 [2] [mV]	CT (Canis familiaris [4]) [ms]	APA (Canis familiaris [5]) [mV]	APD95 (Canis familiaris [6]) [ms]	RP (Canis familiaris [7]) [mV]	APD50 (Canis familiaris [8]) [ms]	Vmax (Canis familiaris [9]) [V s-1]	other results
CCN(CC)c1nc(NCCNC(=O)c2ccc(OC)cc2)c2ccccc2n1.O=C(O)C(=O)O	–	–	–	17	-11	-5	-6	-35	-30	–
CCN(CC)c1nc(NCCNC(=O)c2ccc(F)cc2)c2ccccc2n1.O=C(O)C(=O)O	–	–	–	72	-15	1	-3	-48	-54	–
CCN(CC)c1nc(NCCNC(=O)c2cc(O)c(OC)c(O)c2)c2ccccc2n1	9.5	> 100	320	–	–	–	–	–	–	–
CCN(CC)c1nc(NCCNC(=O)c2ccccc2)c2ccccc2n1.O=C(O)C(=O)O	–	–	–	119	-15	-2	-3	-34	-43	–
CCN(CC)c1nc(NCCNC(=O)c2ccc(C(F)(F)F)cc2)c2ccccc2n1.O=C(O)C(=O)O	–	–	–	79	-23	2	-7	-24	-62	–
CCN(CC)c1nc(NCCNC(=O)c2cc(OC)c(OC)c(OC)c2)c2ccccc2n1 [listing 2 of 2 here]	–	–	–	123	-14.4	-24	-4	-46	–	–
CCN(CC)c1nc(NCCNC(=O)c2ccccc2OC)c2ccccc2n1	–	–	–	71	-31	15	-15	-24	-71	–

Second part, led by results:

EC50 (Homo sapiens [1]) [µM]	MIC (Oryctolagus cuniculus) [µM]	E1/2 [2] [mV]	Structure (SMILES)	CT (Canis familiaris [4]) [ms]	APA (Canis familiaris [5]) [mV]	APD95 (Canis familiaris [6]) [ms]	RP (Canis familiaris [7]) [mV]	APD50 (Canis familiaris [8]) [ms]	Vmax (Canis familiaris [9]) [V s-1]	other results
3.3	> 100	340	CCN(CC)c1nc(NCCNC(=O)c2cc(OC)c(O)c(OC)c2)c2ccccc2n1	–	–	–	–	–	–	–
–	> 100	–	CCN(CC)c1nc(NCCNC(=O)c2cc(OC)c(OC)c(OC)c2)c2ccccc2n1.CS(=O)(=O)O	–	–	–	–	–	–	EC50 (Homo sapiens [3]): Not Active
0.9	10 (≈ 4.25 µg/mL)	130	CCN(CC)c1nc(NCCNC(=O)c2cc(O)c(O)c(OC)c2)c2ccccc2n1	–	–	–	–	–	–	–
0.3	3	15	CCN(CC)c1nc(NCCNC(=O)c2cc(O)c(O)c(O)c2)c2ccccc2n1.CS(=O)(=O)O	7	0	1	0	-1	-2	concentration at 5 h [10]: 1300 ng/mL; concentration at 60 min [11]: 1700 ng/mL; APA (Canis familiaris [12]): -9 mV; CT (Canis familiaris [12]): 11 ms; APD95 (Canis familiaris [13]): 11 ms; RP (Canis familiaris [14]): -4 mV; Vmax (Canis familiaris [15]): -32 V s-1; concentration at 30 min [16]: 240 ng/mL; APD50 (Canis familiaris [17]): -13 ms
–	–	> 600	CCN(CC)c1nc(NCCNC(=O)c2cc(OC)c(OC)c(OC)c2)c2ccccc2n1 [listing 1 of 2 here]	–	–	–	–	–	-40	–
–	> 100	440	CCN(CC)c1nc(NCCNC(=O)c2cc(O)c(OC)c(OC)c2)c2ccccc2n1.CS(=O)(=O)O	–	–	–	–	–	–	EC50 (Homo sapiens [18]): Not Active
